Source: patent US7893197B2, “Relaxin-3 chimeric polypeptides and their preparation and use” (Janssen Pharmaceutica N.V., priority 2005, dated 2011)
Ends that are not written are not given here.

Key:
[1] = system: [125I]-R3/I5 binding sites (GPCR135) in rat brain; assay: Quantitative receptor autoradiography, inhibition of [125I]-R3/I5 binding on rat brain sections; conditions: 7 pM [125I]-R3/I5; all regions investigated
Description: (§1) Rats were asphyxiated by carbon dioxide. Brains were immediately removed from the skull and rapidly frozen in dry-ice. Twenty-micron-thick frontal sections were cut using a Cryostat-microtome (Microm HM505E, Mikron, San Diego, Calif.) and thaw-mounted on adhesive microscope slides (Superfrost^+ Plus, VWR). The sections were kept at −70° C. until use. The sectioning protocol for the regional distribution study included series of coronal sections covering the entire brain.
Sections were thawed and dried under a cold air stream and then pre-incubated for 15 min. at room temperature in incubation buffer (20 mM HEPES, pH 7.4, 120 mM NaCl2, 0.22 mM KH2PO4, 1.3 mM CaCl2, 0.8 mM MgSO4) by immersing sections in a 400 ml jar. Sections were dried again under a cold air stream and incubated for 60 min. with 7 pM [^125I]-R3/I5 (specific activity, 2200 Ci/mmole) in incubation buffer containing 0.5% BSA and protease inhibitor cocktail. […] Nonspecific binding was determined in the presence of 100 nM of human R3. After incubation, the excess radioligand was washed off by immersing the slides in the jar containing incubation buffer at 4° C. (3 times 10 min.) followed by a quick immersion in water. Sections were dried and exposed to Fujifilm Imaging plates (BAS-MS 2025) for 48 hrs. […]

LGR7 = biological target: T1, LGR7 (Homo sapiens, UniProt Q9HBX9); assay: Binding of radioligands to COS-7 cells transfected with LGR7; conditions: radioligand 100 pM
T1 construct: Human LGR7 cDNA containing the complete coding region was PCR amplified; expressed in transfected cells
T1 sequence (Q9HBX9 1-757): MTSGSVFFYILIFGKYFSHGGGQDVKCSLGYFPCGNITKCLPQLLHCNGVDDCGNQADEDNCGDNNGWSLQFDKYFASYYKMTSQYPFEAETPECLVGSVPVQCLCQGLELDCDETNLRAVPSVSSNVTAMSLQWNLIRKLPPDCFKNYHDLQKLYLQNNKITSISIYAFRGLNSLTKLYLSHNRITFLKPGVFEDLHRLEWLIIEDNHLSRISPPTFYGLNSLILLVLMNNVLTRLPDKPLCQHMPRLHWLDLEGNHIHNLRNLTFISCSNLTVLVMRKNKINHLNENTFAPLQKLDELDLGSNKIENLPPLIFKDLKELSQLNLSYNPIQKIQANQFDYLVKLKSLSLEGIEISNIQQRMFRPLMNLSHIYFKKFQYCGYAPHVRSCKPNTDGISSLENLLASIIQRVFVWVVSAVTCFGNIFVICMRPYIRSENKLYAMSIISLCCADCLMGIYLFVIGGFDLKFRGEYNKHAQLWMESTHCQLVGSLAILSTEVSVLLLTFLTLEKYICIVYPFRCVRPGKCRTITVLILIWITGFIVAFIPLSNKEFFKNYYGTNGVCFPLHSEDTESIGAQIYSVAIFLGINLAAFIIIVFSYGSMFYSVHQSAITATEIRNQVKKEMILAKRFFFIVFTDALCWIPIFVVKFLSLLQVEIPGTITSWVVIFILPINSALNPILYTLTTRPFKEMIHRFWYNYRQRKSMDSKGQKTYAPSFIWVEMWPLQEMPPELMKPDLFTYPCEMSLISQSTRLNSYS
Description: (§2) FIGS. 5A-5D illustrate a comparative analysis of the binding specificities of [^125I]-relaxin-3 and [^125I]-R3/I5 for GPCR135 and LGR7. COS-7 cells in 6-well culture dishes were transfected with human GPCR135 and LGR7, respectively. Mock transfected COS-7 cells were used as the negative controls. [^125I]-relaxin-3 (FIG. 5A) or [^125I]-R3/I5 (FIG. 5B) was added to cells at a final concentration of 100 pM either in the absence or presence of 1 uM of unlabeled relaxin-3 to determine total binding and non-specific binding, respectively. FIG. 5C depicts an autoradiogram of [^125]-relaxin-3 binding in rat brain sagittal section. FIG. 5D depicts an autoradiogram of non-specific binding of [^125]-relaxin-3 as determined in the presence of 100 nM of unlabeled relaxin-3. FIG. 5E depicts an autoradiogram of [^125]-R3/I5 binding in rat brain sagittal section. […] binding of [^125]-R3/I5 as determined in the presence of 100 nM of unlabeled relaxin-3.

GPCR135 = biological target: T2, GPCR135 (Homo sapiens, UniProt Q9NSD7); assay: Binding of radioligands to COS-7 cells transfected with GPCR135
T2 construct: expressed in transfected cells
T2 sequence (Q9NSD7 1-469): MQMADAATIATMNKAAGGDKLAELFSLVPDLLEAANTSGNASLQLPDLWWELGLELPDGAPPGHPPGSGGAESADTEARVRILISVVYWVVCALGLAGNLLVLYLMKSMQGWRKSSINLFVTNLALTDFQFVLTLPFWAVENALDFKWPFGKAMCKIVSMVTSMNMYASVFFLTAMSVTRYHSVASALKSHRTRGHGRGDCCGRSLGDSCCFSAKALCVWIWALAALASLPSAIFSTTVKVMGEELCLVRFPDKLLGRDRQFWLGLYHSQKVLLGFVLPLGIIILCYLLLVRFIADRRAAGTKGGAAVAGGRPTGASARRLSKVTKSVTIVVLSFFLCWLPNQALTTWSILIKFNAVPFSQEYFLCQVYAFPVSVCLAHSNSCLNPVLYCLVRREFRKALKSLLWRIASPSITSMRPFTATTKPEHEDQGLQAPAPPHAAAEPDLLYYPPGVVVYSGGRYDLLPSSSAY
Description: as §2

[2] = system: GPCR135 binding sites in rat brain; assay: Receptor autoradiography, distribution of [125I]R3/I5 binding sites in rat brain; parameters: key: −: not detected; +: low density; ++: moderate density; +++: high density; conditions: 7 pM, n = 3
Sequence of GPCR135 binding sites in rat brain (as listed by the source): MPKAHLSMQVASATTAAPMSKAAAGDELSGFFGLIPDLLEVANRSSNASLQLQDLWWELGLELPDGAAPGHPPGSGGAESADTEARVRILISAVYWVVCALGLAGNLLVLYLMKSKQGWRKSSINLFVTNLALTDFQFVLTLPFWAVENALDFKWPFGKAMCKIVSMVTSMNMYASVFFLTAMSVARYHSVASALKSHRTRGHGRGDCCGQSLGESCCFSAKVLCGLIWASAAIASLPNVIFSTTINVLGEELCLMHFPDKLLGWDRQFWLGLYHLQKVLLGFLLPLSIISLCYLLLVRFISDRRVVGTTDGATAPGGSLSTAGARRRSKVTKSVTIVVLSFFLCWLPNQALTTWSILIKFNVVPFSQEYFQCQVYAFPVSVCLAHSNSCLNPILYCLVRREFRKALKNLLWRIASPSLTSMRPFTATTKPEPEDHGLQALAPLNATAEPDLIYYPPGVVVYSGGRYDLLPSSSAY
Description: as §1
Sections were thawed and dried under a cold air stream and then pre-incubated for 15 min. at room temperature in incubation buffer (20 mM HEPES, pH 7.4, 120 mM NaCl2, 0.22 mM KH2PO4, 1.3 mM CaCl2, 0.8 mM MgSO4) by immersing sections in a 400 ml jar. Sections were dried again under a cold air stream and incubated for 60 min. with 7 pM [^125I]-R3/I5 (specific activity, 2200 Ci/mmole) in incubation buffer containing 0.5% BSA and protease inhibitor cocktail. […] Nonspecific binding was determined in the presence of 100 nM of human R3. After incubation, the excess radioligand was washed off by immersing the slides in the jar containing incubation buffer at 4° C. (3 times 10 min.) followed by a quick immersion in water. Sections were dried and exposed to Fujifilm Imaging plates (BAS-MS 2025) for 48 hrs. The imaging plates were scanned using the Fuji Bio-Imaging Analyzer System (BAS-5000, Fuji Medical System, CT) and visualized using ImageGauge V3.12 software (Fuji Medical System, CT).
Cresyl-violet staining was performed on adjacent sections and the regions were identified using the rat brain atlas of Paxinos and Watson (Paxinos et al., 1998, The Rat Brain in Stereotaxic Coordinates, New York, Academic Press (publisher)). For illustration purposes, sections were exposed to autoradiography film ((Kodak Omat AR, Rochester N.Y.). After a 4-week exposure, they were automatically developed and fixed in a Konica SRY-101A machine (Konica Medical Corp., Wayne N.J.). Adobe Photoshop 7.0 and Illustrator 9.0 were used for preparation of the figures.

Sequence of [125I]-R3/I5 binding sites (GPCR135) in rat brain (as listed by the source): as above

## Relaxin: human relaxin (R1) used as competitor in Example 6 (KWKDDVIKLCGRELVRAQIAICGMSTWSRPYVALFEKCCLIGCTKRSLAKYC)
[1]
  displacement of [125I]-R3/I5 binding sites, in words: did not displace any significant amount of [^125I]-R3/I5 binding sites at concentrations of up to 100 nM

## [^125I]-R3/I5: radioiodinated R3/I5 chimera used as tracer (RAAPYGVRLCGREFIRAVIFTCGGSRWQDLQTLCCTDGCSMTDLSALC; ends and bridges not checked; also: radioiodinated (125I), site not given here)
LGR7
  binding to LGR7, in words: did not demonstrate significant binding to LGR7
GPCR135; in presence of 1 uM unlabeled relaxin-3
  non-specific binding, in words: lower non-specific binding than [^125I]-relaxin-3
GPCR135; radioligand 100 pM
  binding to GPCR135 expressing cells, in words: high affinity
[2]; Amygdaloid body: Amygdalohippocampal area
  [125I]R3/I5 binding sites, density: +++
[2]; Amygdaloid body: Bed nucleus stria terminalis
  [125I]R3/I5 binding sites, density: ++
[2]; Amygdaloid body: Central nucleus
  [125I]R3/I5 binding sites, density: ++
[2]; Amygdaloid body: Lateral nucleus
  [125I]R3/I5 binding sites, density: ++
[2]; Amygdaloid body: Medial nucleus
  [125I]R3/I5 binding sites, density: ++
[2]; Brain stem: Dorsal raphe, dorsal part
  [125I]R3/I5 binding sites, density: +
[2]; Brain stem: Inferior colliculus
  [125I]R3/I5 binding sites, density: ++
[2]; Brain stem: Interpeduncular nucleus
  [125I]R3/I5 binding sites, density: +++
[2]; Brain stem: Nucleus incertus
  [125I]R3/I5 binding sites, density: ++
[2]; Brain stem: Periaqueductal gray area
  [125I]R3/I5 binding sites, density: ++
[2]; Brain stem: Spinal trigeminal tract
  [125I]R3/I5 binding sites, density: ++
[2]; Brain stem: Superior colliculus
  [125I]R3/I5 binding sites, density: +++
[2]; Cortex: Motor
  [125I]R3/I5 binding sites, density: ++
[2]; Cortex: Piriform
  [125I]R3/I5 binding sites, density: ++
[2]; Cortex: Somatosensory
  [125I]R3/I5 binding sites, density: ++
[2]; Cortex: Temporal
  [125I]R3/I5 binding sites, density: ++
[2]; Cortex: Visual
  [125I]R3/I5 binding sites, density: ++
[2]; Habenula: Medial
  [125I]R3/I5 binding sites, density: ++
[2]; Hippocampal formation: CAB field
  [125I]R3/I5 binding sites, density: +
[2]; Hippocampal formation: Dentate gyrus
  [125I]R3/I5 binding sites, density: +
[2]; Hypothalamus: Lateral nucleus
  [125I]R3/I5 binding sites, density: −
[2]; Hypothalamus: Paraventricular nucleus
  [125I]R3/I5 binding sites, density: ++
[2]; Hypothalamus: Supraoptic nucleus
  [125I]R3/I5 binding sites, density: ++
[2]; Olfactory System: Anterior olfactory nucleus
  [125I]R3/I5 binding sites, density: +++
[2]; Olfactory System: Olfactory bulb
  [125I]R3/I5 binding sites, density: +++
[2]; Septal region: Lateral
  [125I]R3/I5 binding sites, density: +
[2]; Thalamus: Centro lateral
  [125I]R3/I5 binding sites, density: ++
[2]; Thalamus: Centro medial
  [125I]R3/I5 binding sites, density: ++
[2]; Thalamus: Paraventricular
  [125I]R3/I5 binding sites, density: ++
